What was measured:
Sprague-Dawley rat pups = assay: Alveolus formation (septation) in newborn rat pups, daily intraperitoneal injection, lung histology and morphometry; format: in vivo
From the text: This retinoid, termed AGN 193174, has a structure defined by the formula [drawing 1]
Following sacrifice, rat lungs were fixed and histological sections prepared essentially as described in Massaro et al., Am. J. Physiol. 270: L305 (1996), incorporated by reference herein. The histological sections were viewed and photographs taken under light microscopy.
The differences in alveolar dimensions between =treated and untreated rat pups were so pronounced, they were quantitated by measuring the distance between alveolar walls (Lm) and the surface-to-volume ratio (S/V) of the gas-exchange structures (septa). The Lm in cottonseed oil-treated rats was 80 μm±2.8 μm (N=4) compared to 110 μm±7.3 μm (N=3) in RARβ agonist-treated rats (N=3; P=0.03 by Mann Whitney nonparametric analysis). The S/V was 504 μm^−1±18 μm^−1(N=4) in cottonseed oil-treated rats compared to 365 μm^−1±23 μm^−1(N=3) in RARβ agonist-treated rats (P=0.03).

RARβ = assay: RAR isotype activity stated for the retinoid ligand (RARβ)
RARγ = biological target: T1, RARγ (Homo sapiens, UniProt P13631); assay: RAR isotype activity stated for the retinoid ligand (RARγ)
T1 sequence (P13631 1-454): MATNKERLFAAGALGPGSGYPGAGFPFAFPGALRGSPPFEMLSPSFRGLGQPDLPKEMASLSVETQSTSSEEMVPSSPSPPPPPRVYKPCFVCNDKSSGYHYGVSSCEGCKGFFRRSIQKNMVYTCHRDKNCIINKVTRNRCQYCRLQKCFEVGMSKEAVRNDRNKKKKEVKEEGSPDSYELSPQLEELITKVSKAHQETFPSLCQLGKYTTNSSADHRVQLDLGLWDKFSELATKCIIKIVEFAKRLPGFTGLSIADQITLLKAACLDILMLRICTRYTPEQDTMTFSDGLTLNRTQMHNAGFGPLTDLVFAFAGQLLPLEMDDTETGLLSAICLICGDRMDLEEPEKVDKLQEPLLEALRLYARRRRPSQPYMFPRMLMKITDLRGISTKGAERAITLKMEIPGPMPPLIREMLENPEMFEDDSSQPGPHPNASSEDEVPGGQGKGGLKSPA

RAR receptors = assay: Receptor class specificity, RAR versus RXR
[1] = tested on: rats treated with elastase; details: cited from earlier work
newborn rats = details: cited from earlier work
all RAR isotypes = details: cited from earlier work

## CC1(C)CC=C(c2cccs2)c2cc(C#Cc3ccc(C(=O)O)cc3)ccc21 [AGN 193174]
Sprague-Dawley rat pups; age 14 days, treated daily from age 3 through 13 days, FIGS. 1A and 1B
  alveolar size and degree of septation in histological sections versus cottonseed oil alone: alveoli were larger, and the degree of sepatation less
Sprague-Dawley rat pups; rat pups, 500 micrograms per kg i.p. daily from age 3 to 13 days
  Lung volume versus cottonseed oil-treated rats: the same in both rat groups
RARβ
  activity at RARβ (agonist): RARβ agonist activity
  activity at RARβ (antagonist (so in the source)): antagonist activity
RARγ
  activity at RARγ: antagonist activity
RAR receptors
  specificity RAR versus RXR receptors: specific to RAR receptors and not to RXR receptors

## CC1=C(/C=C/C(C)=C/C=C/C(C)=C/C(=O)O)C(C)(C)CCC1 [ATRA, all-trans-retinoic acid]
[1]
  effect on elastase-induced destruction of alveolar walls: appeared to reverse this destruction
Newborn rats
  effect on number of alveoli: induced the formation of an increased number of alveoli in rats without enlarging the lung
All RAR isotypes
  agonist activity at RAR isotypes: an agonist of all RAR isotypes

From patent US6492414B1, “Methods and compositions for the treatment and prevention of lung disease” (Allergan, Inc., priority 1999, dated 2002)
